Consider one molecule from paper PMC4842970, “Bioactivity Focus of α-Cyano-4-hydroxycinnamic acid (CHCA) Leads to Effective Multifunctional Aldose Reductase Inhibitors” (Scientific Reports, 2016).

The target in data set [1] is T1, human ALR2 (Homo sapiens, UniProt P15121).
T1 construct: purchased WAKO Pure Chemical Industries, Ltd. (Japan); host or cells: baculovirus-insect cell expression system
The experiment in a line: ALR2 inhibition (in vitro reduction of D,L-glyceraldehyde). Type of data set: biochemical. The method, then:
Human ALR2 was purchased from WAKO Pure Chemical Industries, Ltd. (Japan), which was purified from the culture medium of baculovirus-insect cell expression system. […] ALR2 inhibition was determined spectrophotometrically according to the procedure described previously.

Data set [2] concerns HEK293 cells. Nature of the data set: Cytotoxicity, MTT growth inhibition. To be noted: 500 μM. The format is cell-based, human. As for the experimental part: In another aspect, the toxicity was evaluated by the growth inhibition of 5f against human embryonic kidney 293 (HEK293) cells. It was shown that 5f was nontoxic to HEK293 cells even at high concentration of 500 μM (Supplementary B of Fig. S2).
HEK293 cells were purchased from Centre of Cells Resource, Shanghai Institute of Life Science, Chinese Academy of Sciences, P. R. China. HEK293 cells in the exponential phase were plated on a 96-well cell culture plate with 5 × 10^3 cells in each well supplemented with 100 U/ml of penicillin and 100 μg/ml of streptomycin, which were cultured in a humidified atmosphere of 95% and 5% CO2 at 37 °C for 24 h. The cells were adherent. […] 6 wells were set for each group. The wells without addition of the drug were set as controls. The cells in each of the wells were cultured for another 24 h. Then 15 μl of MTT (5 mg/mL) was added to each well. The plates were then incubated at 37 °C for 4 hours, then the supernatants were discarded. 150 μL of DMSO solutions were added to each of the wells and the solutions were mixed thoroughly. Then the plates were incubated at 37 °C for another 10 minutes. Each sample was mixed again and the resulting formazan was measured by its absorbance at 570 nm using a BIO-RAD680 plate reader (Thermo, USA). The experiments were repeated at least 3 times and compared with the control experiment. […]

The test system of data set [3] is chick embryo. The experiment in a line: Chick embryo model of hyperglycemia: mortality, NTD rate, body weight. The format is in vivo. To be noted: glucose 0.4 mmol/egg. As for the experimental part:
In order to evaluate further the potential of 5f as an agent to treat diseases caused by high glucose inside the system, a chick embryo model of treatment with high glucose was set up.
Fertilized leghorn eggs were purchased from the Avian Farm of the South China Agriculture University (Guangzhou, China). Before the injection of glucose (Sigma–Aldrich, MO, USA), the eggs were incubated in a humidified incubator (Grumbach, Germany) at 37 °C with 60% humidity until the embryos reached the desired stage. […] Glucose was dissolved in 200 μL chicken saline and injected on EDD 1. Mortality, abnormality and body weight measurements were made on EDD 5. Embryos were removed from their eggs and weighed. The percent mortality was measured by counting the number of dead versus all embryos. The rate of NTD of the embryos was assessed by the number of NTD versus survival embryos.

For data set [4], the system named is sorbitol content. Nature of the data set: Sorbitol content in glucose-treated embryos. Type of data set: in vivo. As to conditions: glucose-treated chick embryos, EDD 5, dose 1 μM. As for the experimental part: As expected, treatment of 5f decreased ALR2 activity in a dose-dependent manner. […] However, EDA, which is a clinical radical scavenger, was shown no effect on the inhibition of ALR2.
Embryos on EDD 5 were homogenized with chicken saline and centrifuged (4 °C, 10000 rpm, 10 min). The supernatant was used for measuring AR activity in the sample. A chicken AR ELISA kit (Jianglai Biotechnology, China) were used for detection. The concentration of AR in the samples was then determined by comparing the OD of the samples to the standard curve. The sorbitol contents of the chick embryo were determined by a Sorbitol Colorimetric Assay Kit (BioVision, USA). In the assay, sorbitol is oxidized to fructose with the proportional development of intense color with an absorbance maximum at 560 nm.

For data set [5], the system named is oxidative stress (ROS, MDA, ORAC). Nature of the data set: ROS generation, MDA and ORAC level in chick embryos. Type of data set: in vivo. As to conditions: glucose-treated chick embryos. From the text:
It has been reported that hyperglycemia increased the production of ROS. Blocking the generation of ROS could at least partially prevent the possible damage of hyperglycemia. No doubt, oxidative stress will be induced in glucose treated embryos. This conclusion was confirmed by the determination of ROS and malondialdehyde (MDA) levels, and the anti-oxidation ability in chick embryos on EDD 5. […] However, treatment of 5f decreased both levels of ROS and MDA in a dose-dependent manner.
In addition, the ORAC level is indicative of the anti-oxidative capacity.
ROS generation ratios in the eyes of EDD 5 chick embryos were detected with 5 μmol 2′,7′-dichlorofluorescein-diacetate (DCFH-DA, Sigma-Aldrich). The peroxide content was determined by measuring thiobarbituric-acid-reactive substances (TBARS) with a commercial MDA kit (Nanjing Jiancheng Institute of Biotechnology, Nanjing, China). The procedures for the ORAC assay were modified from the previously described method. The automated ORAC assay was carried out on a decay of the fluorescein signal and determined with an excitation/emission filter pair of 485/527 nm in a GENios Lueifcrase microplate reader (TECAN) at 37 °C. Final results were calculated on the basis of the difference in the area under the fluorescein decay curve between the blank and each sample.

Data set [6] in a line: Plasma glucose in chick embryos. The format is in vivo. To be noted: glucose-treated chick embryos, EDD 5. As for the experimental part: Figure 4 5f restored neural tube development and marker expression in chick embryos on EDD 5. Glucose concentration (A) and Pax3 protein expression (B) were determined in chick embryos. The plasma glucose concentration was measured using a glucose oxidase-coupled spectrophotometric assay kit. Proteins were detected using the monoclonal antibody anti-Pax3 diluted 1:1000 (DSHB, USA) and visualized using anti-mouse IgG conjugated with horseradish peroxidase (HRP) and Pierce ECL Western Blotting Substrate (Thermo Fisher Scientific, USA) as the substrate of HRP. […] Values were expressed as mean ± SD in each group (n = 10). *P < 0.05, **P < 0.01 vs. control. ^#P < 0.05, ^##P < 0.01 vs. glucose.
The ventricles of embryos were punctured with a 20-gauge needle. At this early embryonic age, 30–40 μL of blood was obtained from the embryos on each EDD 5. The blood containing heparin was centrifuged at 3000 rpm for 15 min. The plasma glucose concentration was measured using a glucose oxidase-coupled spectrophotometric assay kit obtained from Sigma Chemical Co. (St. Louis, MO, USA) according to the manufacturer’s instructions.

What is called IC50 is the midpoint of a concentration-inhibition curve. Consider `CC(=O)N[C@H](COCc1ccccc1)C(=O)NCCCNC(=O)/C(C#N)=C/c1ccc(O)cc1` [Compound 5f, (R,E) - N - (3-(2-acetamido-3-(benzyloxy)propanamido)propyl)-2-cyano-3-(4-hydroxyphenyl)acrylamide], for which the 50% inhibitory concentration (IC50) in data set [1] (human ALR2, D,L-glyceraldehyde as substrate, read-out: IC50 (ALR2 inhibition)) worked out at 72.7 ± 1.6 nM. Further, in data set [1] (ratio of inhibition activity vs 5d), the “ALR2 inhibition activity relative to 5d” value is recorded as “about 5 times”. Besides, the “inhibition rate (growth inhibition)” value in data set [2] came out at 19.2%. Also, in data set [3] (EDD 5, dose 10 nM (CL)), the Body weight amounted to 291.3 ± 10.2 mg, the “Death (/n)” value was determined as 35.0% and the “NTD (/survival)” value is listed as 46.20%. Also, in data set [3] (EDD 5, dose 100 nM (CM)), the Body weight worked out at 295.9 ± 13.2 mg, the “Death (/n)” value is given as 30.0% and the “NTD (/survival)” value was determined as 35.7%. In data set [3] (EDD 5, dose 1 μM), the Body weight is given as 307.9 ± 10.5 mg, the “Death (/n)” value was determined as 25.0% and the “NTD (/survival)” value is 20.0%. Further, in data set [4], the “sorbitol content in embryo” value was “decreased significantly”. Moreover, the “ORAC level (anti-oxidative capacity) of embryo” value in data set [5] (EDD 5) is “recovered”. Moreover, in data set [5] (EDD 5, dose 1 μM), the “MDA level in embryo” value is recorded as “to a normal state” and the “ROS level in embryo” value is listed as “to a normal state”. Also, in data set [6], the plasma glucose level entry is “did not lower”.
